For this test, the target named is human FXR (NR1H4) (Homo sapiens (Human), UniProt Q96RI1). Description: Human FXR (NR1H4) Assay (luciferase reporter, Indigo Bioscience kit). As to Efficacy (%): efficacy normalized to CDCA set as 100%. The note with it: for EC50: FXR agonistic potency range, CHO reporter cells expressing human NR1H4, 22 hours incubation; for Emax: read-out: Efficacy (%). It is filed as cell-based. The text has this: Assays Human FXR (NR1H4) Assay
Determination of a ligand mediated Gal4 promoter driven transactivation to quantify ligand binding mediated activation of FXR. FXR Reporter Assay kit purchased from Indigo Bioscience (Catalogue number: IB00601) to determine the potency and efficacy of compound developed by Enanta that can induce FXR activation. The principle application of this reporter assay system is to quantify functional activity of human FXR. The assay utilizes non-human mammalian cells, CHO (Chinese hamster ovary) cells engineered to express human NR1H4 protein (referred to as FXR). Reporter cells also incorporate the cDNA encoding beetle luciferase which catalyzes the substrates and yields photon emission. Luminescence intensity of the reaction is quantified using a plate-reading luminometer, Envision. Reporter Cells include the luciferase reporter gene functionally linked to an FXR responsive promoter. Thus, quantifying changes in luciferase expression in the treated reporter cells provides a sensitive surrogate measure of the changes in FXR activity. […] The assay is according to the manufacturer's instructions. In brief, the assay was performed in white, 96 well plates using final volume of 100 ul containing cells with different doses of compounds. Retrieve Reporter Cells from −80° C. storage. Perform a rapid thaw of the frozen cells by transferring a 10 ml volume of 37° C. cell recovery medium into the tube of frozen cells. Recap the tube of Reporter Cells and immediately place it in a 37° C. water bath for 5-10 minutes. Retrieve the tube of Reporter Cell Suspension from the water bath. Sanitize the outside surface of the tube with a 70% alcohol swab, and then transfer it into the cell culture hood. Dispense 90 μl of cell suspension into each well of the 96-well Assay Plate. Transfer the plate into 37° C. incubator, allowing the cells adherent to the bottom of the well. Dilute compounds in Dilution Plate (DP), and administrate to cells at Assay Plate (AP). DMSO content of the samples was kept at 0.2%. Cells were incubated for additional 22 hours before luciferase activities were measured. Thirty minutes before intending to quantify FXR activity, remove Detection Substrate and Detection Buffer from the refrigerator and place them in a low-light area so that they may equilibrate to room temperature. Remove the plate's lid and discard all media contents by ejecting it into an appropriate waste container. Gently tap the inverted plate onto a clean absorbent paper towel to remove residual droplets. Cells will remain tightly adhered to well bottoms. Add 100 μl of luciferase detection reagent to each well of the assay plate. Allow the assay plate to rest at room temperature for at least 5 minutes following the addition of LDR. Set the instrument (Envision) to perform a single 5 second “plate shake” prior to reading the first assay well. Read time may be 0.5 second (500 mSec) per well.
Background: A reporter such as luciferase makes a cellular process visible.

In general, EC50 refers to the concentration that produces a half-maximal response.

Sequence of human FXR (NR1H4) (Q96RI1 whole entry, the tested form may be a part): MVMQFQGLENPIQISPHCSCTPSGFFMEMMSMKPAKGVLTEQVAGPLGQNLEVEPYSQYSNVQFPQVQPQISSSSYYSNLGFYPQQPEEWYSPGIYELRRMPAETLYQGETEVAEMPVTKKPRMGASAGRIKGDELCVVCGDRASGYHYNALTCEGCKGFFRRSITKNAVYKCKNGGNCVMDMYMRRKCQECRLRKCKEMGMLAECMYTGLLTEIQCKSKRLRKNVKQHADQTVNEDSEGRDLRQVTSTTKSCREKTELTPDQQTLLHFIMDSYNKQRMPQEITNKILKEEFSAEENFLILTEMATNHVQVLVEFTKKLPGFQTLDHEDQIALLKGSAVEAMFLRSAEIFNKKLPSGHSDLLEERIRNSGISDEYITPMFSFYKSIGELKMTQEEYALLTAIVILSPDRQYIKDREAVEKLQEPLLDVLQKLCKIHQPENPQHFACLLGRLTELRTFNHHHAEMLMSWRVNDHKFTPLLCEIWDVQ

In the case of `CC[C@H]1[C@@H](O)[C@@H]2[C@H](CC[C@]3(C)[C@@H]([C@H](C)C/C=C/c4ccccc4C(=O)OC)CC[C@@H]23)[C@@]2(C)CC[C@@H](O)C[C@@H]12` [Example 1], the EC50 is 1 to 10 µM and the Emax is 217%.

In the case of `CC[C@H]1[C@@H](O)[C@@H]2[C@H](CC[C@]3(C)[C@@H]([C@H](C)C/C=C/c4ccccc4C(=O)O)CC[C@@H]23)[C@@]2(C)CC[C@@H](O)C[C@@H]12` [Example 2], the EC50 was less than 0.1 µM and the Emax is 313%.

As for `CC[C@H]1[C@@H](O)[C@@H]2[C@H](CC[C@]3(C)[C@@H]([C@H](C)CCCc4ccccc4C(=O)O)CC[C@@H]23)[C@@]2(C)CC[C@@H](O)C[C@@H]12` [Example 3], the EC50 lay in the range of 0.1 to 1 µM and the Emax stood at 352%.

Take `CC[C@H]1[C@@H](O)[C@@H]2[C@H](CC[C@]3(C)[C@@H]([C@H](C)CC=Cc4cc(F)c(O)c(F)c4)CC[C@@H]23)[C@@]2(C)CC[C@@H](O)C[C@@H]12` [Example 4]: the EC50 lay in the range of 0.1 to 1 µM and the Emax is 298%.

For the compound `CC[C@H]1[C@@H](O)[C@@H]2[C@H](CC[C@]3(C)[C@@H]([C@H](C)CCCc4cc(F)c(O)c(F)c4)CC[C@@H]23)[C@@]2(C)CC[C@@H](O)C[C@@H]12` [Example 5], the EC50 fell in the range of 1 to 10 µM and the Emax is 271%.

In the case of `CC[C@H]1[C@@H](O)[C@@H]2[C@H](CC[C@]3(C)[C@@H]([C@H](C)Cc4nc5c(C(=O)OC)cccc5o4)CC[C@@H]23)[C@@]2(C)CC[C@@H](O)C[C@@H]12` [Example 6], the EC50 is 1 to 10 µM and the Emax is 131%.

With `CC[C@H]1[C@@H](O)[C@@H]2[C@H](CC[C@]3(C)[C@@H]([C@H](C)Cc4nc5c(C(=O)O)cccc5o4)CC[C@@H]23)[C@@]2(C)CC[C@@H](O)C[C@@H]12` [Example 7], the EC50 lay in the range of 0.1 to 1 µM and the Emax came to 195%.

Take `CC[C@H]1[C@@H](O)[C@@H]2[C@H](CC[C@]3(C)[C@@H]([C@H](C)CCCn4nnc(CC(=O)O)n4)CC[C@@H]23)[C@@]2(C)CC[C@@H](O)C[C@@H]12` [Example 8]: the EC50 was in the range of 1 to 10 µM and the Emax worked out at 29%.

Take `CC[C@H]1[C@@H](O)[C@@H]2[C@H](CC[C@]3(C)[C@@H]([C@H](C)CCCn4nnnc4CC(=O)O)CC[C@@H]23)[C@@]2(C)CC[C@@H](O)C[C@@H]12` [Example 9]: the EC50 fell in the range of 1 to 10 µM and the Emax came to 172%.

Turning to `CC[C@H]1[C@@H](O)[C@@H]2[C@H](CC[C@]3(C)[C@@H]([C@H](C)CC4CC4c4ccccc4C(=O)O)CC[C@@H]23)[C@@]2(C)CC[C@@H](O)C[C@@H]12` (some centres unmarked) [Example 10], the EC50 was in the range of 0.1 to 1 µM and the Emax is 252%.

As to `CC[C@H]1[C@@H](O)[C@@H]2[C@H](CC[C@]3(C)[C@@H]([C@H](C)CCOc4ccccc4C(=O)O)CC[C@@H]23)[C@@]2(C)CC[C@@H](O)C[C@@H]12` [Example 11], the Emax worked out at 388%.

For `CC[C@H]1[C@@H](O)[C@@H]2[C@H](CC[C@]3(C)[C@@H]([C@H](C)C/C=C/c4ccc(C(=O)OC)c(O)c4)CC[C@@H]23)[C@@]2(C)CC[C@@H](O)C[C@@H]12` [Example 12], the EC50 lay in the range of 1 to 10 µM and the Emax is 134%.

With `CC[C@H]1[C@@H](O)[C@@H]2[C@H](CC[C@]3(C)[C@@H]([C@H](C)C/C=C/c4ccc(C(=O)O)c(O)c4)CC[C@@H]23)[C@@]2(C)CC[C@@H](O)C[C@@H]12` [Example 13], the EC50 lay in the range of 0.1 to 1 µM and the Emax was 166%.

For the compound `CC[C@H]1[C@@H](O)[C@@H]2[C@H](CC[C@]3(C)[C@@H]([C@H](C)CCCc4ccc(C(=O)O)c(O)c4)CC[C@@H]23)[C@@]2(C)CC[C@@H](O)C[C@@H]12` [Example 14], the EC50 was in the range of 1 to 10 µM and the Emax was 232%.

`CC[C@H]1[C@@H](O)[C@@H]2[C@H](CC[C@]3(C)[C@@H]([C@H](C)C/C=C/c4ccc(C(C)C(=O)OC)cc4)CC[C@@H]23)[C@@]2(C)CC[C@@H](O)C[C@@H]12` (some centres unmarked) [Example 15]: the EC50 lay in the range of 1 to 10 µM and the Emax was found to be 40%.

With `CC[C@H]1[C@@H](O)[C@@H]2[C@H](CC[C@]3(C)[C@@H]([C@H](C)C/C=C/c4ccc(C(C)C(=O)O)cc4)CC[C@@H]23)[C@@]2(C)CC[C@@H](O)C[C@@H]12` (some centres unmarked) [Example 16], the EC50 lay in the range of 1 to 10 µM and the Emax came to 248%.

For the compound `CC[C@H]1[C@@H](O)[C@@H]2[C@H](CC[C@]3(C)[C@@H]([C@H](C)CCCc4ccc(C(C)C(=O)O)cc4)CC[C@@H]23)[C@@]2(C)CC[C@@H](O)C[C@@H]12` (some centres unmarked) [Example 17], the EC50 was 1 to 10 µM and the Emax was 261%.

Take `CC[C@H]1[C@@H](O)[C@@H]2[C@H](CC[C@]3(C)[C@@H]([C@H](C)C/C=C/c4ccc(C(=O)OC)cc4)CC[C@@H]23)[C@@]2(C)CC[C@@H](O)C[C@@H]12` [Example 18]: the EC50 fell in the range of 1 to 10 µM and the Emax worked out at 113%.

For the compound `CC[C@H]1[C@@H](O)[C@@H]2[C@H](CC[C@]3(C)[C@@H]([C@H](C)C/C=C/c4ccc(C(=O)O)cc4)CC[C@@H]23)[C@@]2(C)CC[C@@H](O)C[C@@H]12` [Example 19], the EC50 is 0.1 to 1 µM and the Emax came to 244%.

Turning to `CC[C@H]1[C@@H](O)[C@@H]2[C@H](CC[C@]3(C)[C@@H]([C@H](C)CCCc4ccc(C(=O)O)cc4)CC[C@@H]23)[C@@]2(C)CC[C@@H](O)C[C@@H]12` [Example 20], the EC50 was in the range of 1 to 10 µM and the Emax was 266%.

For the compound `CC[C@H]1[C@@H](O)[C@@H]2[C@H](CC[C@]3(C)[C@@H]([C@H](C)C/C=C/c4cccc(C(=O)OC)c4)CC[C@@H]23)[C@@]2(C)CC[C@@H](O)C[C@@H]12` [Example 21], the EC50 was 1 to 10 µM and the Emax is 92%.

As for `CC[C@H]1[C@@H](O)[C@@H]2[C@H](CC[C@]3(C)[C@@H]([C@H](C)C/C=C/c4cccc(C(=O)O)c4)CC[C@@H]23)[C@@]2(C)CC[C@@H](O)C[C@@H]12` [Example 22], the EC50 fell in the range of 1 to 10 µM and the Emax was 195%.

With `CC[C@H]1[C@@H](O)[C@@H]2[C@H](CC[C@]3(C)[C@@H]([C@H](C)CCCc4cccc(C(=O)O)c4)CC[C@@H]23)[C@@]2(C)CC[C@@H](O)C[C@@H]12` [Example 23], the EC50 lay within 1 to 10 µM and the Emax came out at 292%.

For the compound `CC[C@H]1[C@@H](O)[C@@H]2[C@H](CC[C@]3(C)[C@@H]([C@H](C)C/C=C/c4ccc(-c5nnn[nH]5)cc4)CC[C@@H]23)[C@@]2(C)CC[C@@H](O)C[C@@H]12` [Example 24], the EC50 lay in the range of 1 to 10 µM and the Emax amounted to 234%.

`CC[C@H]1[C@@H](O)[C@@H]2[C@H](CC[C@]3(C)[C@@H]([C@H](C)C/C=C/c4ccc(F)cc4C(=O)O)CC[C@@H]23)[C@@]2(C)CC[C@@H](O)C[C@@H]12` [Example 25]: the Emax was 376%.

With `CC[C@H]1[C@@H](O)[C@@H]2[C@H](CC[C@]3(C)[C@@H]([C@H](C)CCCc4ccc(F)cc4C(=O)O)CC[C@@H]23)[C@@]2(C)CC[C@@H](O)C[C@@H]12` [Example 26], the EC50 fell in the range of 0.1 to 1 µM and the Emax stood at 256%.
